Assay results reported in patent US4305954A, “Antiinflammatory 3,4-dihydro(or 1,4-dihydro)-2-[(substituted)thio]-[1]benzopyrano[3,4-d]imidazoles and their corresponding sulfoxides and sulfones” (E. I. Du Pont de Nemours and Company, priority 1981, dated 1981).
Like-named read-outs stand apart in the source and are kept apart here.

Tested on: adjuvant-induced arthritis in rats
Experiment: Established adjuvant-induced arthritis in rats
Format: in vivo, rat (Charles River Lewis male rats)
Details: for ED50: Rattus norvegicus, 24 h, read-out: Adjuvant Arthritis ED50; for % reduction at the indicated dose (paw volume, Adjuvant Arthritis): 9 mg/kg
[1] = oral by gavage, 7 daily doses, ED50% decrease from control paw volume (uninjected left hind paw), read one day after last dose

In the case of CC(=O)Oc1ccccc1C(=O)O [Aspirin, aspirin, reference compound], the ED50 (po) is reported as 305 mg/kg.

FC(F)C(F)(F)Sc1nc2c([nH]1)COc1cc(Cl)c(Cl)cc1-2 [Example 1, 7,8-Dichloro-3,4-dihydro(or 1,4-dihydro)-2-[(1,1,2,2-tetrafluoroethyl)-thio]-[1]benzopyrano[3,4-d]imidazole] gave an ED50 [1] of 8.2 mg/kg.

O=S(=O)(c1nc2c([nH]1)COc1cc(Cl)c(Cl)cc1-2)C(F)(F)C(F)F [Example 2, 7,8-Dichloro-3,4-dihydro(or 1,4-dihydro)-2-[(1,1,2,2-tetrafluoroethyl)sulfonyl]-[1]benzopyrano[3,4-d]imidazole] gave an ED50 [1] of 3.1 mg/kg.

With FC(F)C(F)(F)Sc1nc2c([nH]1)COc1ccc(Cl)cc1-2 [Example 4] the ED50 [1] was greater than 9 mg/kg and the “% reduction at the indicated dose (paw volume, Adjuvant Arthritis)” value (oral by gavage, 7 daily doses) was 30%.

For Fc1ccc2c(c1)OCc1[nH]c(SC(F)(F)C(F)F)nc1-2 [Example 5], the ED50 [1] was 50 mg/kg.

For O=S(=O)(c1nc2c([nH]1)COc1cc(F)ccc1-2)C(F)(F)C(F)F [Example 6], the ED50 [1] was greater than 9 mg/kg and the “% reduction at the indicated dose (paw volume, Adjuvant Arthritis)” value (oral by gavage, 7 daily doses) was 22%.

Molecule CC(C)Cc1ccc(C(C)C(=O)O)cc1 (centres unmarked) [Ibuprofen, ibuprofen, reference compound] has an ED50 [1] of 100 mg/kg.

Molecule COc1ccc2c(c1)c(CC(=O)O)c(C)n2C(=O)c1ccc(Cl)cc1 [Indomethacin, indomethacin, reference compound] has an ED50 (po) of 0.3 mg/kg.

For CCCCC1C(=O)N(c2ccccc2)N(c2ccccc2)C1=O [Phenylbutazone, phenylbutazone, reference compound], the ED50 [1] was 10 mg/kg.
